Source: patent publication US20260249027A1, “METERED DOSE INHALERS AND HIGH-DOSE SUSPENSIONS” (Kindeva Drug Delivery L.P., priority 2023, published 2026)

How the values were obtained:
[1] = Through life dose consistency of mometasone furoate pMDI suspensions (USP <601>, apparatus A); assay type: physicochemical
Experimental: (§1) In the following examples, dose consistency was determined by in vitro measurement of single actuation dose content at start, middle and end of pMDI unit life in line with U.S. Pharmacopeia (USP)<601>, using a flow rate of 28.3 L/min and apparatus A. Aerodynamic particle size distribution of the pMDI suspension aerosols was measured at start of unit life in line with U.S. Pharmacopeia (USP)<601> using a Next Generation impactor without pre-separator (apparatus 6) and a flow rate of 30 L/min.
(§2) Suspensions of micronized mometasone furoate in HFA-152a or HFO-1234ze(E) were prepared. A first set of suspensions included no ethanol. A second set of suspensions included 2% ethanol by weight. Each suspension included an amount of mometasone furoate to provide a nominal delivered dose (ex-valve) of 0.5 mg/actuation (10.0 mg/mL) or 1.0 mg/actuation (20.0 mg/mL). Two further suspensions including no ethanol were prepared which included an amount of mometasone furoate to provide a nominal delivered dose (ex-valve) of 2.0 mg/actuation (40.0 mg/mL).
(§3) In total, ten suspension pMDI formulations were prepared in triplicate with sufficient fill weight to provide 60 actuations. Each suspension was filled into Kindeva FEP coated canisters, crimped with a Kindeva 50-μL valve. Each pMDI unit was sonicated for at least 10 minutes to disperse the suspended drug and tested with a Kindeva actuator having an exit orifice diameter (EOD) of 0.4 mm.
The through-life (TL) dose consistency of each pMDI unit was determined by measuring the mean ex-actuator delivered dose in micrograms of mometasone furoate (N=3) at the start of life (SoL), middle of life (MOL) and end of life (EoL) of the unit.

[2] = Aerodynamic particle size measurement of mometasone furoate pMDI suspensions (Next Generation impactor); assay type: physicochemical
Excerpt: In general, aerosols with mass median aerodynamic diameters (MMAD) of at least 1 μm but less than 5 μm in size are suitable for effective deep lung deposition for therapeutic effect. Herein, fine particle fraction (FPF) is defined as the percentage of the ex-actuator delivered API having a MMAD of less than 5 μm when tested in vitro. Herein, “ex-actuator” delivered dose is used to describe the amount of API delivered past the actuator of a pMDI. Therefore, an aerosol with a high FPF is typically suitable for deep lung deposition.
as §1, §2
as §3, with “0.4 mm or 0.25” for “0.4”
The mass median aerodynamic diameter (MMAD) and fine particle fraction (FPF) of each pMDI unit were measured by Next Generation cascade impaction (N=3) for each pMDI suspension.

[3] = nominal ex-valve 0.5 mg/act, HFA-152a
[4] = nominal ex-valve 0.5 mg/act, HFA-152a/2% EtOH (w/w)
[5] = nominal ex-valve 0.5 mg/act, HFO-1234ze(E)
[6] = nominal ex-valve 0.5 mg/act, HFO-1234ze(E)/2% EtOH (w/w)
[7] = nominal ex-valve 1.0 mg/act, HFA-152a
[8] = nominal ex-valve 1.0 mg/act, HFA-152a/2% EtOH (w/w)
[9] = nominal ex-valve 1.0 mg/act, HFO-1234ze(E)
[10] = nominal ex-valve 1.0 mg/act, HFO-1234ze(E)/2% EtOH (w/w)
[11] = nominal ex-valve 2.0 mg/act, HFA-152a
[12] = nominal ex-valve 2.0 mg/act, HFO-1234ze(E)
[13] = nominal ex-valve 0.5 mg/act, HFA-152a/2% EtOH (w/w), actuator exit orifice diameter 0.4 mm
[14] = nominal ex-valve 0.5 mg/act, HFA-152a, actuator exit orifice diameter 0.4 mm
[15] = nominal ex-valve 0.5 mg/act, HFO-1234ze(E)/2% EtOH (w/w), actuator exit orifice diameter 0.25 mm
[16] = nominal ex-valve 0.5 mg/act, HFO-1234ze(E)/2% EtOH (w/w), actuator exit orifice diameter 0.4 mm
[17] = nominal ex-valve 0.5 mg/act, HFO-1234ze(E), actuator exit orifice diameter 0.25 mm
[18] = nominal ex-valve 0.5 mg/act, HFO-1234ze(E), actuator exit orifice diameter 0.4 mm
[19] = nominal ex-valve 1.0 mg/act, HFA-152a/2% EtOH (w/w), actuator exit orifice diameter 0.25 mm
[20] = nominal ex-valve 1.0 mg/act, HFA-152a/2% EtOH (w/w), actuator exit orifice diameter 0.4 mm
[21] = nominal ex-valve 1.0 mg/act, HFA-152a, actuator exit orifice diameter 0.25 mm
[22] = nominal ex-valve 1.0 mg/act, HFA-152a, actuator exit orifice diameter 0.4 mm
[23] = nominal ex-valve 1.0 mg/act, HFO-1234ze(E)/2% EtOH (w/w), actuator exit orifice diameter 0.25 mm
[24] = nominal ex-valve 1.0 mg/act, HFO-1234ze(E)/2% EtOH (w/w), actuator exit orifice diameter 0.4 mm
[25] = nominal ex-valve 1.0 mg/act, HFO-1234ze(E), actuator exit orifice diameter 0.25 mm
[26] = nominal ex-valve 1.0 mg/act, HFO-1234ze(E), actuator exit orifice diameter 0.4 mm
[27] = nominal ex-valve 2.0 mg/act, HFA-152a, actuator exit orifice diameter 0.4 mm
[28] = nominal ex-valve 2.0 mg/act, HFO-1234ze(E), actuator exit orifice diameter 0.4 mm

effect of addition of ethanol on through unit life ex-actuator delivered dose consistency ([1]; 2% ethanol by weight, HFA-152a or HFO-1234ze(E)): did not always substantially improve
through unit life ex-actuator delivered dose consistency ([1]; HFA-152a or HFO-1234ze(E) with and without 2% ethanol by weight): relatively consistent
EoL mean delivered dose [1, 3]: 433.2 μg/act
MoL mean delivered dose [1, 3]: 433.8 μg/act
SoL mean delivered dose [1, 3]: 457.7 μg/act
TL mean delivered dose [1, 3]: 441.6 μg/act
EoL mean delivered dose [1, 4]: 450.9 μg/act
MoL mean delivered dose [1, 4]: 427.3 μg/act
SoL mean delivered dose [1, 4]: 408.9 μg/act
TL mean delivered dose [1, 4]: 429.1 μg/act
EoL mean delivered dose [1, 5]: 430.8 μg/act
MoL mean delivered dose [1, 5]: 434.7 μg/act
SoL mean delivered dose [1, 5]: 457.5 μg/act
TL mean delivered dose [1, 5]: 441.0 μg/act
EoL mean delivered dose [1, 6]: 465.7 μg/act
MoL mean delivered dose [1, 6]: 453.1 μg/act
SoL mean delivered dose [1, 6]: 433.9 μg/act
TL mean delivered dose [1, 6]: 450.9 μg/act
EoL mean delivered dose [1, 7]: 705.6 μg/act
MoL mean delivered dose [1, 7]: 1018.3 μg/act
SoL mean delivered dose [1, 7]: 1087.9 μg/act
TL mean delivered dose [1, 7]: 937.3 μg/act
EoL mean delivered dose [1, 8]: 759.7 μg/act
MoL mean delivered dose [1, 8]: 936.3 μg/act
SoL mean delivered dose [1, 8]: 906.5 μg/act
TL mean delivered dose [1, 8]: 867.5 μg/act
EoL mean delivered dose [1, 9]: 934.4 μg/act
MoL mean delivered dose [1, 9]: 931.9 μg/act
SoL mean delivered dose [1, 9]: 752.4 μg/act
TL mean delivered dose [1, 9]: 855.3 μg/act
EoL mean delivered dose [1, 10]: 848.1 μg/act
MoL mean delivered dose [1, 10]: 1003.4 μg/act
SoL mean delivered dose [1, 10]: 852.6 μg/act
TL mean delivered dose [1, 10]: 901.4 μg/act
EoL mean delivered dose [1, 11]: 1613.8 μg/act
MoL mean delivered dose [1, 11]: 1771.5 μg/act
SoL mean delivered dose [1, 11]: 1815.1 μg/act
TL mean delivered dose [1, 11]: 1733.4 μg/act
EoL mean delivered dose [1, 12]: 1837.0 μg/act
MoL mean delivered dose [1, 12]: 1725.9 μg/act
SoL mean delivered dose [1, 12]: 1755.0 μg/act
TL mean delivered dose [1, 12]: 1772.6 μg/act
FPF with actuator EOD 0.25 mm compared with EOD 0.4 mm ([2]; 0.5 and 1.0 mg/actuation in HFO-1234ze(E), 1.0 mg/actuation in HFA-152a): consistently greater FPFs
MMAD values of aerosols, suitability ([2]; HFA-152a or HFO-1234ze(E), with and without ethanol, in-vitro): in an appropriate respirable range
FPF without ethanol compared with corresponding suspensions with 2% ethanol by weight ([2]; HFA-152a or HFO-1234ze(E), all nominal doses): generally produced greater FPFs
Mean FPF [2, 13]: 34.0%
Mean MMAD [2, 13]: 3.55 μm
Mean FPF [2, 14]: 37.5%
Mean MMAD [2, 14]: 3.56 μm
Mean FPF [2, 15]: 55.3%
Mean MMAD [2, 15]: 3.70 μm
Mean FPF [2, 16]: 39.0%
Mean MMAD [2, 16]: 3.70 μm
Mean FPF [2, 17]: 66.6%
Mean MMAD [2, 17]: 3.41 μm
Mean FPF [2, 18]: 49.8%
Mean MMAD [2, 18]: 3.36 μm
Mean FPF [2, 19]: 45.3%
Mean MMAD [2, 19]: 3.91 μm
Mean FPF [2, 20]: 31.1%
Mean MMAD [2, 20]: 3.90 μm
Mean FPF [2, 21]: 49.1%
Mean MMAD [2, 21]: 3.75 μm
Mean FPF [2, 22]: 29.4%
Mean MMAD [2, 22]: 4.13 μm
Mean FPF [2, 23]: 52.5%
Mean MMAD [2, 23]: 3.84 μm
Mean FPF [2, 24]: 31.8%
Mean MMAD [2, 24]: 4.01 μm
Mean FPF [2, 25]: 58.8%
Mean MMAD [2, 25]: 3.61 μm
Mean FPF [2, 26]: 39.5%
Mean MMAD [2, 26]: 3.69 μm
Mean FPF [2, 27]: 19.5%
Mean MMAD [2, 27]: 5.09 μm
Mean FPF [2, 28]: 22.5%
Mean MMAD [2, 28]: 4.87 μm
Structure (SMILES): C[C@@H]1C[C@H]2[C@@H]3CCC4=CC(=O)C=C[C@]4(C)[C@@]3(Cl)[C@@H](O)C[C@]2(C)[C@@]1(OC(=O)c1ccco1)C(=O)CCl [mometasone furoate]
FPF and MMAD in HFO-1234ze(E) compared with corresponding suspensions in HFA-152a ([2]; with or without ethanol): consistently produced greater FPFs and generally smaller MMADs
